Experimental data reported in patent publication US20090312406A1, “COUMARIN COMPOUNDS AND THEIR USE FOR TREATING VIRAL INFECTION” (priority 2008, published 2009).
Read-outs that look alike come from different tables or passages of the source.

Experiments:
[1] = test system: Influenza A/WSN/33 (H1N1) virus; assay: In vitro anti-influenza virus assay (neutralization test), cytopathic effect on MDCK cells; format: cell-based
Protocol: (§1) Anti-influenza activities of the coumarin compounds were evaluated by measuring the ability of a test compound to inhibit the cytopathic effect induced by an influenza virus on MDCK cells. The 96-well tissue culture plates were seeded with 200 μL of MDCK cells at a concentration of 1.1×10^5 cells/mL in DMEM with 10% fetal bovine serum (FBS). The plates were incubated for 24-30 h at 37° C. and were used at about 90% confluency. Influenza A/WSN/33 (H1N1) virus (100 TCID50) was added to the cells and incubated at 35° C. for 1 h. After adsorption, the infected cell plates were overlaid with 50 μL of DMEM plus 2% FBS and a test compound with different concentrations. The plate was incubated at 35° C. for 72 h. At the end of incubation, the plates were fixed by the addition of 100 μL of 4% formaldehyde for 1 h at room temperature. After the removal of formaldehyde, the plates were stained with 0.1% crystal violet for 15 min at room temperature. The plates were washed and dried, and the density of the well was measured at 570 nm. The concentration required for a test compound to reduce the virus-induced cytopathic effect (CPE) by 50% relative to the virus control was expressed as IC50.
(§2) Compounds 1 and 95 were also tested on various influenza virus strains. Amantadine or Relenza was also tested for comparison. IC50 is defined as the concentration required for a test compound to reduce the virus-induced cytopathic effect (CPE) by 50% relative to the virus control.

[2] = test system: herpes simplex virus type 1; assay: In vitro assessment of anti-HSV activity, plaque reduction assay in Vero cells (Example 8); format: cell-based
Protocol: Anti-HSV activities of compounds described herein were evaluated by performing a plaque reduction assay using monolayer cultures of Vero cells in 24-well culture plates. A cell monolayer was infected with herpes simplex virus type 1 (50 pfu/well) and incubated at 37° C. with 5% CO2 for 1 h. The infected cell monolayer was then washed three times with PBS and overlaid with a solution (maintenance medium containing 1% methylcellulose and various concentrations of a test compound). After 72 h of incubation at 37° C., the cell monolayer was fixed with 10% formalin and stained with 1% crystal violet. […] The minimal concentration of a compound required to reduce 50% of plaque numbers (EC50) was calculated by regression analysis of the dose-response curves generated from the plaque assay.

[3] = Cytotoxicity (CC50) of the compounds tested in the anti-HSV assay; format: cell-based; conditions: African green monkey, Vero cells; Table 5; read-out: CC50 (μM), 50% cytotoxicity concentration
HIV-1 = assay: Inhibition of HIV-1 replication in peripheral blood mononuclear cells, viral RNA by real-time PCR; conditions: Human immunodeficiency virus 1, PBMC
Protocol: Equal amounts of wild-type and mutant viruses were used to infect 5×10^4 peripheral blood mononuclear cells (PBMC) in 1.5 mL medium containing DMSO or various concentrations of a test compound. A half-milliliter of the culture medium was collected from each culture at days 3, 5, and 7. Viral RNA was extracted from the collected culture supernatants and the viral titers (copies/mL) were determined by real-time PCR. The percentage of inhibition was calculated as [100−(VD/VC)]×100%, where VD and VC refer to the virus titers in the presence and absence of the test compound, respectively.

[4] = test system: Influenza A/TW/141/04 (H1N1); assay: Anti-influenza CPE neutralization test on MDCK cells; format: cell-based; conditions: Influenza A virus
Protocol: as §1, §2

[5] = test system: Influenza A/TW/3446/04 (H3N2); assay: as above; format: cell-based; conditions: Influenza A virus
Protocol: as §1, §2

[6] = test system: Influenza A/TW/785/05 (H1N1); assay: as above; format: cell-based; conditions: Influenza A virus
Protocol: as §1, §2

[7] = test system: Influenza A/TW/83/05 (H3N2); assay: as above; format: cell-based; conditions: Influenza A virus
Protocol: as §1, §2

[8] = test system: Influenza A/Udorn/72 (H3N2); assay: as above; format: cell-based; conditions: Influenza A virus
Protocol: as §1, §2

Influenza B/TW/70325/05 = assay: as above; format: cell-based; conditions: Influenza B virus, Influenza B/TW/70325/05, CPE
Protocol: as §1, §2

Influenza B/TW/710/05 = assay: as above; format: cell-based; conditions: Influenza B virus, Influenza B/TW/710/05, CPE
Protocol: as §1, §2

Influenza B/TW/99/07 = assay: as above; format: cell-based; conditions: Influenza B virus, Influenza B/TW/99/07, CPE
Protocol: as §1, §2

Enterovirus 71 (4643) = assay: In vitro EV 71 neutralization assay, cytopathic effect on RD cells; format: cell-based; conditions: Enterovirus A; Enterovirus 71 (4643), RD cells, CPE; read-out: IC50
Protocol: (§3) This assay measured the ability of a test compound to inhibit the cytopathic effect induced by a picornavirus (EV71, Coxsackie Virus B3, or human rhinovirus 2) on RD cells. The method used for this assay is described in Chang et al., J Med Chem, 2005, 48(10), 3522-3535. More specifically, 96-well tissue culture plates were seeded with 200 μL of RD cells at a concentration of 3×10^5 cells/mL in DMEM with 10% FBS. The plates were incubated for 24-30 h at 37° C. and were used at about 90% confluency. Virus (100 TCID50) mixed with different concentrations of a test compound was added to the cells and incubated at 37° C. for 1 h. After adsorption, the infected cell plates were overlaid with 50 μL of DMEM plus 5% FBS and 2% DMSO. The plate was wrapped in Parafilm and incubated at 37° C. for 64 h. At the end of incubation, the plates were fixed by the addition of 100 μL of 0.5% glutaraldehyde for 1 h at room temperature. After the removal of glutaraldehyde, the plates were stained with 0.1% crystal violet for 15 min at room temperature. The plates were washed and dried, and the density of the well was measured at 570 nm. The concentration required for a test compound to reduce the virus-induced cytopathic effect (CPE) by 50% relative to the virus control is expressed as IC50.

Coxsackie B virus 3 = assay: In vitro Coxsackie Virus B3 neutralization assay, cytopathic effect on RD cells; format: cell-based; conditions: Coxsackie B virus 3, RD cells, CPE
Protocol: as §3

Human rhinovirus 2 = assay: In vitro human rhinovirus 2 neutralization assay, cytopathic effect on RD cells; format: cell-based; conditions: Rhinovirus A; Human rhinovirus 2, RD cells, CPE; read-out: IC50
Protocol: as §3

[9] = MDCK cells, 72 h, lower bound (10 nM), upper in μM, read-out: IC50 (concentration reducing virus-induced cytopathic effect by 50%)

Cc1cccc(-c2c(C(=O)c3ccccc3)oc3ccc4c(C)cc(=O)oc4c23)c1 [Compound 141]
IC50 [1, 9]: 10 to 999 nM | SI, selectivity index = CC50/EC50 ([2]; CC50/EC50, HSV-1): >25641.03 | EC50 ([2]; Human alphaherpesvirus 1, herpes simplex virus type 1, Vero cells, plaque reduction, 72 h, read-out: EC50 (μM), 50% effective concentration): 0.0039 µM | CC50 [3]: > 100 µM | inhibition at 0.1 µM (HIV-1; 72 h, read-out: Inhibition (%) Day 3): 19% | inhibition at 0.1 µM (HIV-1; 120 h, read-out: Inhibition (%) Day 5): 71% | inhibition at 0.1 µM (HIV-1; 168 h, read-out: Inhibition (%) Day 7): 97%

COc1cccc(C(=O)c2oc3ccc4c(C)cc(=O)oc4c3c2-c2cccc(Br)c2)c1 [Compound 256]
IC50 [1, 9]: 10 to 999 nM

Cc1cc(=O)oc2c1ccc1oc(C(=O)c3cccs3)c(-c3cccs3)c12 [Compound 257]
IC50 [1, 9]: 10 to 999 nM

Cc1cc(=O)oc2c1ccc1oc(C(=O)c3cccs3)c(-c3cccc(Br)c3)c12 [Compound 259]
IC50 [1, 9]: 10 to 999 nM

CCOc1cccc(C(=O)c2oc3ccc4c(C)cc(=O)oc4c3c2-c2cccc(Br)c2)c1 [Compound 260]
IC50 [1, 9]: 10 to 999 nM

CCCCOc1cccc(C(=O)c2oc3ccc4c(C)cc(=O)oc4c3c2-c2cccc(Br)c2)c1 [Compound 262]
IC50 [1, 9]: 10 to 999 nM

CCCCCOc1cccc(C(=O)c2oc3ccc4c(C)cc(=O)oc4c3c2-c2cccc(Br)c2)c1 [Compound 263]
IC50 ([1]; MDCK cells, 72 h, ranges given, read-out: IC50 (concentration reducing virus-induced cytopathic effect by 50%)): 1000 to 5900 nM

CC(=O)N[C@H]1[C@H]([C@H](O)[C@H](O)CO)OC(C(=O)O)=C[C@@H]1N=C(N)N [Relenza, Zanamivir, reference compound]
IC50 ([1]; MDCK, CPE, Table 2, read-out: IC50): 62 ± 18 nM | IC50 [4]: 350 ± 140 nM | IC50 [5]: 30 ± 10 nM | IC50 [6]: 1060 ± 982 nM | IC50 [7]: 918 ± 26 nM | IC50 [8]: 670 ± 232 nM | IC50 (Influenza B/TW/70325/05): 20 ± 10 nM | IC50 (Influenza B/TW/710/05): 30 ± 19 nM | IC50 (Influenza B/TW/99/07): 99 ± 9 nM | IC50 (Enterovirus 71 (4643)): > 25000 nM | IC50 (Coxsackie B virus 3): > 25000 nM | IC50 (Human rhinovirus 2): > 25000 nM
